In PubChem BioAssay (NCI):
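The compound was tested at five concentrations on cells cultured in 96-well plates, with a 48-hour exposure period. Here, GI50 denotes the concentration required for 50% inhibition of growth. TGI: total growth inhibition.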

Key:
Experiment in all cases: NCI tumour cell line growth inhibition, 48 h
A549 NSCLC = test system: A549 NSCLC
BT-549 breast = test system: BT-549 breast
CAKI-1 renal = test system: CAKI-1 renal
EKVX NSCLC = test system: EKVX NSCLC
HCT-116 colon = test system: HCT-116 colon
NCI-H226 lung = test system: NCI-H226 lung
PC-3 prostate = test system: PC-3 prostate
SF-539 CNS = test system: SF-539 CNS
SF-268 CNS = test system: SF-268 CNS
RXF 393 renal = test system: RXF 393 renal

Compound	TGI (A549 NSCLC) [µM]	TGI (BT-549 breast) [µM]	TGI (CAKI-1 renal) [µM]	TGI (EKVX NSCLC) [µM]	TGI (HCT-116 colon) [µM]	TGI (NCI-H226 lung) [µM]	TGI (PC-3 prostate) [µM]	TGI (SF-539 CNS) [µM]	TGI (SF-268 CNS) [µM]	TGI (RXF 393 renal) [µM]	GI50 (A549 NSCLC) [µM]	GI50 (BT-549 breast) [µM]	GI50 (CAKI-1 renal) [µM]	GI50 (EKVX NSCLC) [µM]	GI50 (HCT-116 colon) [µM]	GI50 (NCI-H226 lung) [µM]	GI50 (RXF 393 renal) [µM]	GI50 (SF-268 CNS) [µM]	GI50 (SF-539 CNS) [µM]
CC(=O)O[C@@H]1O[Si](C(C)(C)C)(C(C)(C)C)[C@H](C)[C@H]1C	> 100	> 100	> 100	> 100	> 100	> 100	> 100	> 100											
CCOC(=O)NC(=S)c1ccc(O)c2ccccc12	> 100	95.2	> 100	> 100	> 100		> 100	> 100	> 100										
CCN(CC)CCNc1ccc2nnn3c4ccccc4c(=O)c1c23	13.2		> 33.7	19.4	35.2	8.09		19.6	19.2	18.5									
O=C(Nc1nc(C23CC4CC(CC(C4)C2)C3)cs1)c1cc2c(ccc3ccccc32)oc1=O	> 100	> 100	> 100	> 100	> 100	> 100	> 100	> 100	> 100										
Cc1ccc(-c2cc(-c3c(C)nn(C)c(=O)c3N)[nH]n2)cc1	> 100		> 100	> 100	> 100	> 100	> 100	> 100	> 100	> 100									
O=C(Nn1cnn2c(=O)c3ccccc3nc2c1=O)c1ccccc1	> 100	> 100	> 100	> 100	> 100	> 100	> 100	> 100	> 100										
[O-][n+]1c(-c2ccccc2)c2nc3ccccc3nc2c2ccccc21	> 100		> 100	> 100	> 100	> 100		> 100	> 100	> 100									
COC(=O)c1c(C(=O)OC)c2c3ccccc3n(C)c2c2c1c1ccccc1n2C	> 100	> 100	> 100	> 100	> 100	> 100	> 100	> 100											
O=C(O)c1nccnc1C(=O)O	> 100		> 100	> 100	> 100	> 100		> 100	> 100	> 100									
COc1cc2c(c(OC(C)=O)c1OC(C)=O)-c1ccc(SC)c(=O)cc1C(NC(C)=O)CC2 (stereo not drawn)	> 100		> 100	> 100	17.5	15.1		1.64	> 100	> 100									
COc1ccc(N2C(=O)/C(=C\c3cccc(Oc4ccccc4)c3)SC2c2ccccc2)cc1 (stereo not drawn)	> 100	> 100	> 100	> 100	> 100	> 100		55.9	> 100	> 100									
Cn1c(=O)oc2cc(Br)ccc21	> 100		> 100	> 100	> 100	> 100	> 100	> 100	> 100	> 100									
C=CCc1cccc(/C=N\N=C(/N)NO)c1O	29.1		9.01	17.7	> 79.6	11.5		6.81	> 100	19.2									
Nc1c(N2CCCCC2)c(=O)nc2[nH]/c(=C\c3ccccc3)c(=O)n12	> 100		> 100	> 100	> 100	> 100		> 100	> 100	> 100									
CC(O[Si](c1ccccc1)(c1ccccc1)C(C)(C)C)[C@H](NC(=O)OC(C)(C)C)C(=O)O (stereo partly drawn)	> 100		> 100	> 100	> 100		56.8		> 100	> 100									
CC(=O)N/C(=C\c1ccc(/C=C(\NC(C)=O)C2=NC3C(=O)c4ccccc4C(=O)C3N2)cc1)C1=NC2C(=O)c3ccccc3C(=O)C2N1 (stereo not drawn)			> 100	> 100	> 100	> 100		> 100	> 100	> 100									
O=C(O)Cn1c2c(c3c(O)cccc31)C(=O)c1ccccc1-2	> 100	> 100	> 100	> 100	> 100	> 100		> 100	> 100	> 100	> 100	12.8	> 100	3.2	93.6	> 100	> 100	> 100	5.62
CC(=O)N=C1N(/C=C2\C(=O)Oc3ccccc3C2=O)C(=O)/C(=C/c2ccccc2Cl)N1C	> 100		> 100	> 100	> 100	> 100	> 100	> 100	> 100	> 100									
